Assays:
Assay in all cases: IA-DTB cysteine engagement
Type in all cases: binding
CYP27B1_C163 = molecular target: T1, CYP27B1_C163 (Homo sapiens, UniProt O15528); conditions: 22Rv1 cells, 20 μM probe, 1 h, relative to DMSO
T1 construct: endogenous in cells; host or cells: 22Rv1
T1 sequence (O15528 1-508): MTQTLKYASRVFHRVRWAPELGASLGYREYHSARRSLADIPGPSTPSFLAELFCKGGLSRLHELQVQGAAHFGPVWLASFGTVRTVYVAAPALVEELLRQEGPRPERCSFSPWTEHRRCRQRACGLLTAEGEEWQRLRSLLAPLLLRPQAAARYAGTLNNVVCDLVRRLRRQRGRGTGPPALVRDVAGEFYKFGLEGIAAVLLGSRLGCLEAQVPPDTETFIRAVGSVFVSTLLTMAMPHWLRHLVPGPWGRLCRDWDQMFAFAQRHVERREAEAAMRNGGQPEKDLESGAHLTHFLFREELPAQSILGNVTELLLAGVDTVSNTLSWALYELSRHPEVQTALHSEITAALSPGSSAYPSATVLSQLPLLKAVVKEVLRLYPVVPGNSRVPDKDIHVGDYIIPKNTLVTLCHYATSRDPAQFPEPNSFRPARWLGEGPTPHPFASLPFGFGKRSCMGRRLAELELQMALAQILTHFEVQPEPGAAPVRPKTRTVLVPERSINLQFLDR
In short: (§1)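 Cells were treated in situ with electrophilic probes, then lysed, and the lysates (2 mg/mL protein) were labeled with IA-DTB for 1 h at ambient temperature. After reduction, alkylation and trypsin digestion, labeled peptides were streptavidin-enriched, TMT-labeled and fractionated. Engagement ratios are probe vs DMSO reporter intensities, averaged across replicates.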

HIRA_C673 = molecular target: T2, HIRA_C673 (Homo sapiens, UniProt P54198); conditions: 22Rv1 cells, 20 μM probe, 1 h, relative to DMSO
T2 construct: endogenous in cells; host or cells: 22Rv1
In short: as §1

NCAPD2_C439 = molecular target: T3, NCAPD2_C439 (Homo sapiens, UniProt Q15021); conditions: 22Rv1 cells, 20 μM probe, 1 h, relative to DMSO; for % engagement NCAPD2_C439: 60 min, 20 µM
T3 construct: endogenous in cells; host or cells: 22Rv1
In short: as §1

SNX11_C181 = molecular target: T4, SNX11_C181 (Homo sapiens, UniProt Q9Y5W9); conditions: 22Rv1 cells, 20 μM probe, 1 h, relative to DMSO
T4 construct: endogenous in cells; host or cells: 22Rv1
T4 sequence (Q9Y5W9 1-270): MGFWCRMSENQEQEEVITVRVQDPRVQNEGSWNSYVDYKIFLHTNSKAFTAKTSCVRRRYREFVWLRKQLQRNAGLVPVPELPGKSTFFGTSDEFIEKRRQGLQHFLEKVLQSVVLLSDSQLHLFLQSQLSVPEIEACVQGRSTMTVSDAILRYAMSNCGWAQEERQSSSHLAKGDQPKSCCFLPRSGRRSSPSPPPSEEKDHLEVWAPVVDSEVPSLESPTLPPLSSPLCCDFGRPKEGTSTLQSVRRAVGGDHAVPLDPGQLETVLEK
In short: as §1

TMEM256-PLSCR3_C126 = molecular target: T5, TMEM256-PLSCR3_C126 (Homo sapiens, UniProt Q9NRY6); conditions: 22Rv1 cells, 20 μM probe, 1 h, relative to DMSO
T5 construct: endogenous in cells; host or cells: 22Rv1
In short: as §1

T2 sequence (P54198 whole entry): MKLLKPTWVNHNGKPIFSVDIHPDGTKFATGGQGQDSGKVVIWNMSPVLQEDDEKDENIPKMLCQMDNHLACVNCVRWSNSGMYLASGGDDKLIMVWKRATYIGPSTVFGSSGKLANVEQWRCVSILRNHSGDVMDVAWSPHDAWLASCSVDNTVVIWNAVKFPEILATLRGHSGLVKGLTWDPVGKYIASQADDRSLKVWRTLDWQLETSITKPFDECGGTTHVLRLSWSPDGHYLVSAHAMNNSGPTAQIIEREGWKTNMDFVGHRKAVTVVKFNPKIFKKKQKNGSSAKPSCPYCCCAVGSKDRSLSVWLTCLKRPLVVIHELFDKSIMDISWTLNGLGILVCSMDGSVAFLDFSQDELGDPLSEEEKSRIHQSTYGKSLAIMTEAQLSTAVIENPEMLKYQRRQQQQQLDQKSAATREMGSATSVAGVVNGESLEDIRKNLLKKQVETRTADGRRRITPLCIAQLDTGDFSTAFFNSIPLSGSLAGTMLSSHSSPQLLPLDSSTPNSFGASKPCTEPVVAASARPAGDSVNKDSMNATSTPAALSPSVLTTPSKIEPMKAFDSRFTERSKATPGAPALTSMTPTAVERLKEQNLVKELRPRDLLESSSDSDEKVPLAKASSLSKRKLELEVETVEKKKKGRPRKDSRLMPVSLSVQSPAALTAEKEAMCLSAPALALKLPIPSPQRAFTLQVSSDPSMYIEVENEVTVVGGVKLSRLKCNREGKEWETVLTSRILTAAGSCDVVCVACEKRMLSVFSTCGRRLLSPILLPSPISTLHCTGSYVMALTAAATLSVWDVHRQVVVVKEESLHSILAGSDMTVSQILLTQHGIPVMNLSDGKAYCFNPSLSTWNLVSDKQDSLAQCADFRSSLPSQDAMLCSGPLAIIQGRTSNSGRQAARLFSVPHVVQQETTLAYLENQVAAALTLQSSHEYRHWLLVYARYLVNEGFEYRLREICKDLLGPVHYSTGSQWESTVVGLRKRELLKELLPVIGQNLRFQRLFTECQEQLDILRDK
T3 sequence (Q15021 whole entry): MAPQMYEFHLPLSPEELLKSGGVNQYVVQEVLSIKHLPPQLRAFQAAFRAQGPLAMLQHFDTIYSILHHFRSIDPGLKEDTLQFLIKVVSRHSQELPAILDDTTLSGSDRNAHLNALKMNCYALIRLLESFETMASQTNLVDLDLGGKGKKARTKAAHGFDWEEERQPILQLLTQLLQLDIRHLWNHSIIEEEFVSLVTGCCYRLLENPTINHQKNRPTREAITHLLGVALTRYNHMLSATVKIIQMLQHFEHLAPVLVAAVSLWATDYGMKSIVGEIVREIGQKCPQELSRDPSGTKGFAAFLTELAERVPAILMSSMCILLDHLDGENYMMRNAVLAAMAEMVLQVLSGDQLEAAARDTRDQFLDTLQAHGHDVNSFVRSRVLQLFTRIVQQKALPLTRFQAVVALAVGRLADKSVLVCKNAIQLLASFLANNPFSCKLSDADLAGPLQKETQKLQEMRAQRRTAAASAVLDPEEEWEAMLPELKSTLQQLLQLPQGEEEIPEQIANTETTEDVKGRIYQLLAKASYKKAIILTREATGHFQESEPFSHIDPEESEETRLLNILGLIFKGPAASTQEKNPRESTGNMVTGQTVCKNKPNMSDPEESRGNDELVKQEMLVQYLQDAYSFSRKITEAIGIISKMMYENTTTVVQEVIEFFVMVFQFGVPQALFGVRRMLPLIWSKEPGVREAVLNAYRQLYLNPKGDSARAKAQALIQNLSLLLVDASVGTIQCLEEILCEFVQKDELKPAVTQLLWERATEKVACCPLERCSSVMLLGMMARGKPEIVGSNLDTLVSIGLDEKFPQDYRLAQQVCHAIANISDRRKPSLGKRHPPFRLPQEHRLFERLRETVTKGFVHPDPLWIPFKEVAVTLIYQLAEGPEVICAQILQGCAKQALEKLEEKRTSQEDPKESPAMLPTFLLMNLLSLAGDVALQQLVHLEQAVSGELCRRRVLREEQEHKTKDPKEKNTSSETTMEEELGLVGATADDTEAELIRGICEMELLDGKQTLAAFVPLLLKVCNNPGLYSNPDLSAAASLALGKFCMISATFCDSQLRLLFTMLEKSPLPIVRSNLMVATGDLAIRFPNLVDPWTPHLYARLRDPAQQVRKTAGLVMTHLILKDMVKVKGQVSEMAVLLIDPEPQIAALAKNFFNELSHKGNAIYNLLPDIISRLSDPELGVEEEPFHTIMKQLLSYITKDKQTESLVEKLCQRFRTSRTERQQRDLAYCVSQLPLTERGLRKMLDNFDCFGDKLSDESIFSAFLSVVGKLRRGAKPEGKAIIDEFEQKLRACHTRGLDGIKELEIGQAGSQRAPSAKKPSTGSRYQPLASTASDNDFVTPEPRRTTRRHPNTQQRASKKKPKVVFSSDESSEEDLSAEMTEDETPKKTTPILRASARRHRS
T5 sequence (Q9NRY6 whole entry): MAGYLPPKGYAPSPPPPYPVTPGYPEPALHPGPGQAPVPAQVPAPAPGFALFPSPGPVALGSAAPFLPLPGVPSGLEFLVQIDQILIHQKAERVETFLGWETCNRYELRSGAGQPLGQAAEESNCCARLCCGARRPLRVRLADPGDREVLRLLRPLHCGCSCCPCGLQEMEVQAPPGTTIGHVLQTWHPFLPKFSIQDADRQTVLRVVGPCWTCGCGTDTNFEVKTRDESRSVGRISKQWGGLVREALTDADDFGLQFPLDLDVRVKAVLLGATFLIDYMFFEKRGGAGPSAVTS

Row | % engagement CYP27B1_C163 (CYP27B1_C163) [%] | % engagement HIRA_C673 (HIRA_C673) [%] | % engagement NCAPD2_C439 (NCAPD2_C439) [%] | % engagement SNX11_C181 (SNX11_C181) [%] | % engagement TMEM256-PLSCR3_C126 (TMEM256-PLSCR3_C126) [%] | inhibition at 20 µM (NCAPD2_C439) [%] | Compound
1 | 100 | 73 | 80 | 23 | 66 |  | C=CC(=O)N1C[C@H](c2ccc(Br)cc2)[C@H]1C(=O)Nc1cccc2cccnc12 [MY-3B, (2S,3S)-1-acryloyl-3-(4-bromophenyl)-N-(quinolin-8-yl)azetidine-2-carboxamide]
2 | 89 | 3 |  | 68.5 | 86 | 20 | C=CC(=O)N1C[C@H](c2ccc(Br)cc2)[C@@H]1C(=O)Nc1cccc2cccnc12 [MY-1B, (2R,3S)-1-acryloyl-3-(4-bromophenyl)-N-(quinolin-8-yl)azetidine-2-carboxamide]
3 | 73.5 | 11.5 | 21.5 | 17 | 58 |  | C=CC(=O)N1C[C@H](c2ccc(Br)cc2)[C@H]1C(=O)Nc1cccc2cccnc12 [MY-3A, (2S,3S)-1-acryloyl-3-(4-bromophenyl)-N-(quinolin-8-yl)azetidine-2-carboxamide]
4 | 73 | −12 |  | 54.5 | 81 | 29.5 | C=CC(=O)N1C[C@@H](c2ccc(Br)cc2)[C@H]1C(=O)Nc1cccc2cccnc12 [MY-1A, (2S,3R)-1-acryloyl-3-(4-bromophenyl)-N-(quinolin-8-yl)azetidine-2-carboxamide]

Reference: US20250034216A1, “STEREOSELECTIVE COVALENT LIGANDS FOR ONCOGENIC AND IMMUNOLOGICAL PROTEINS” (The Scripps Research Institute, priority 2021, published 2025)
